Measurements: PMC6270011, “Design and Synthesis of Arylthiophene-2-Carbaldehydes via Suzuki-Miyaura Reactions and Their Biological Evaluation” (Molecules, 2013)
Values after ≈ are worked out from the molar mass of the structure shown. Like-named read-outs stand apart in the source and are kept apart here.

Assays:
[1] = Nitric oxide (NO) scavenging assay; format: biochemical
Description: Nitric oxide (NO) is a free radical causing inflammatory disorders and cancer in the human body when sodium nitroprusside decomposes to produce nitric oxide. The antioxidant activity of various thiophene derivatives has been reported in the literature and it has also been observed that compounds with high antioxidant activity served as antitumor agents. The newly synthesized compounds reacted directly with nitric oxide and inhibited nitrite formation in an excellent way.
The reaction mixtures comprising sample solution (2 µL), phosphate buffer (17 µL) and sodium nitroprusside (20 µL) were incubated at 37 °C for 2 h in well plates. Then Griess reagent (20 µL, 0.3% sulphanilic acid in glacial acetic acid + 0.1% naphthylethylenediamine (NED): equal volumes of both solutions mixed just before use) was added to each well plate and the mixture kept at room temperature for 20 min to develop the color. The absorbance was measured at 528 nm by using an ELISA reader. The results were processed using Gen 5 software. All the reactions were performed in triplicate. Positive control (containing known antioxidant) and control (containing all samples) were run in parallel. Negative control was used to calibrate the instrument. The % age antioxidant activity was determined by using the following formula: % antioxidant activity = [(Absorbance of control − absorbance of sample)/(Absorbance of control)] × 100

Escherichia coli = experiment: Antibacterial activity (disc / inhibition zone) against Escherichia coli; details: read-out: Inhibition zone, E.coli
Salmonella typhi = experiment: Antibacterial activity (disc / inhibition zone) against Salmonella typhi; details: Salmonella enterica; for zone of inhibition at 25 µg/mL / zone of inhibition at 50 µg/mL: read-out: Inhibition zone, S. typhi
Bacillus subtilis = experiment: Antibacterial activity (disc / inhibition zone) against Bacillus subtilis; details: for zone of inhibition at 25 µg/mL / zone of inhibition at 50 µg/mL: read-out: Inhibition zone, B. subtilis
[2] = tested on: human red blood cells (erythrocytes); format: cell-based
Procedure: Three mL of freshly obtained human blood was placed in heparinized tubes to avoid coagulation, gently mixed and poured into a sterile 15 mL Falcon tube and centrifuged for 5 min at 1,000 ×g. The supernatant was discarded and red blood cells were washed three times with chilled (4 °C) sterile isotonic phosphate buffer saline pH 7.4 (5 mL). Erythrocytes (10^8 cells/mL) were maintained for each assay by dilution with phosphate buffer saline. Erythrocytes were counted on a heamacytometer. Twenty µL of each compound was mixed with red blood cells suspension (180 μL) separately. The samples were incubated at 37 °C for 35 min. The samples were placed on ice for 5 min and then agitated at 1,000 ×g for 5 min. Supernatant (100 µL) were taken from each tube and diluted 10 times with chilled (4 °C) phosphate buffered saline. Triton X-100 (0.1% v/v) was taken as a positive control and PBS was negative control and then subjected to the same process. […] The percentage RBSs lyses for each sample was calculated.

Shigella dysenteriae = experiment: Antibacterial activity (disc / inhibition zone) against Shigella dysenteriae; details: read-out: Inhibition zone, S. dysenteriae
Staphylococcus aureus = experiment: Antibacterial activity (disc / inhibition zone) against Staphylococcus aureus; details: read-out: Inhibition zone, S. aureus
Pseudomonas aeruginosa = experiment: Antibacterial activity (disc / inhibition zone) against Pseudomonas aeruginosa; details: for zone of inhibition at 25 µg/mL / zone of inhibition at 50 µg/mL: read-out: Inhibition zone, P. aeruginosa
[3] = 25 µg/mL, read-out: % Activity at 25 µg (NO scavenging)
[4] = 50 µg/mL, read-out: % Activity at 50 µg (NO scavenging)
[5] = 100 µg/mL, read-out: % Activity at 100 µg (NO scavenging)
[6] = human erythrocytes, 37 °C, 35 min

Compound	inhibition [1, 3] [%]	inhibition [1, 4] [%]	inhibition [1, 5] [%]	melting point [°C]	zone of inhibition at 25 µg/mL (Escherichia coli) [mm]	zone of inhibition at 50 µg/mL (Escherichia coli) [mm]	zone of inhibition at 25 µg/mL (Salmonella typhi) [mm]	zone of inhibition at 50 µg/mL (Salmonella typhi) [mm]	zone of inhibition at 25 µg/mL (Bacillus subtilis) [mm]	zone of inhibition at 50 µg/mL (Bacillus subtilis) [mm]	Haemolytic activity, percentage of lysis (Average ± SD) [2, 6] [%]	zone of inhibition at 25 µg/mL (Shigella dysenteriae) [mm]	zone of inhibition at 50 µg/mL (Shigella dysenteriae) [mm]	zone of inhibition at 25 µg/mL (Staphylococcus aureus) [mm]	zone of inhibition at 50 µg/mL (Staphylococcus aureus) [mm]	zone of inhibition at 25 µg/mL (Pseudomonas aeruginosa) [mm]	zone of inhibition at 50 µg/mL (Pseudomonas aeruginosa) [mm]	IC50 (NO scavenging) [1] [µg/mL]	further results
O=C1O[C@H]([C@@H](O)CO)C(O)=C1O [Ascorbic Acid, ascorbic acid, reference compound]	40 ± 0.038	61 ± 0.004	77 ± 0.001	–	–	–	–	–	–	–	–	–	–	–	–	–	–	–	–
O=Cc1cc(-c2ccc(Cl)c(Cl)c2)cs1 [2h, 4-(3,4-Dichlorophenyl)thiophene-2-carbaldehyde]	13 ± 0.002	20 ± 0.025	35 ± 0.077	158 to 160	32 ± 0.03	60 ± 0.24	30 ± 0.13	57 ± 0.01	28 ± 0.03	58 ± 0.22	3.487 ± 0.054	29 ± 0.19	59.4 ± 0.45	39.4 ± 0.05	59.4 ± 0.45	40 ± 0.041	67 ± 0.021	–	–
O=Cc1cc(-c2ccc(F)c(Cl)c2)cs1 [2i, 4-(3-Chloro-4-fluorophenyl)thiophene-2-carbaldehyde]	12 ± 0.05	57 ± 0.0021	72 ± 0.009	108 to 110	16 ± 0.043	26 ± 0.023	33 ± 0.25	59.5 ± 0.25	36.5 ± 0.04	56 ± 0.5	9.779 ± 0.095	43 ± 0.105	58 ± 0.16	27.8 ± 0.12	58 ± 0.16	42 ± 0.04	66 ± 0.01	46.1 (≈ 192 µM)	Haemolytic activity, in words [2]: highest haemolytic action
O=Cc1cc(-c2ccc(Cl)s2)cs1 [2c]	18 ± 0.007	40 ± 0.038	55 ± 0.04	229 to 231	14 ± 0.14	24 ± 0.17	34 ± 0.05	64 ± 0.5	36.2 ± 0.05	60 ± 0.01	3.934 ± 0.095	35 ± 0.01	64 ± 0.11	34 ± 0.01	64 ± 0.11	45 ± 0.019	60 ± 0.009	83.3 (≈ 364 µM)	IC50 (Bacillus subtilis; read-out: IC50 against Bacillus subtilis): 39.4 µg/mL (≈ 172 µM)
[H]/N=C(/N)N[C@H]1[C@H](O)[C@@H](O)[C@H](O[C@@H]2O[C@@H](C)[C@](O)(C=O)[C@H]2O[C@@H]2O[C@@H](CO)[C@H](O)[C@@H](O)[C@@H]2NC)[C@@H](N/C(N)=N\[H])[C@@H]1O [Streptomycin, streptomycin, reference compound]	–	–	–	–	29.3 ± 0.002	63 ± 0.002	33 ± 0.001	53 ± 0.001	34 ± 0.015	53 ± 0.001	–	48 ± 0.05	55 ± 0.034	15 ± 0.034	55 ± 0.03	41.5 ± 0.002	63 ± 0.002	–	IC50 (Pseudomonas aeruginosa; read-out: IC50 against Pseudomonas aeruginosa): 35.2 µg/mL (≈ 60.5 µM)
COc1ccc(-c2csc(C=O)c2)cc1 [2f, 4-(4-Methoxyphenyl)thiophene-2-carbaldehyde]	5 ± 0.005	10 ± 0.028	25 ± 0.005	68 to 70	9 ± 0.03	8 ± 0.01	36 ± 0.01	63 ± 0.11	24.4 ± 0.03	54 ± 0.23	6.083 ± 0.143	42 ± 0.7	61.4 ± 0.56	34 ± 0.05	61.4 ± 0.56	34 ± 0.04	64 ± 0.04	–	IC50 (Salmonella typhi; read-out: IC50 against Salmonella typhi): 37.9 µg/mL (≈ 174 µM); Haemolytic activity, in words [2]: highest haemolytic action
O=Cc1cc(-c2cc(C(F)(F)F)cc(C(F)(F)F)c2)cs1 [2b, 4-(3,5-Bis(trifloromethyl)phenyl)thiophene-2-carbaldehyde]	10 ± 0.02	45 ± 0.001	60 ± 0.021	95 to 97	18 ± 0.13	–	33 ± 0.2	63 ± 0.25	23 ± 0.09	59 ± 0.1	5.003 ± 0.078	33 ± 0.05	62.4 ± 0.1	36.6 ± 0.4	62.4 ± 0.1	42 ± 0.02	67 ± 0.01	66.6 (≈ 205 µM)	–
O=Cc1cc(-c2ccccc2)cs1 [2a, 4-Phenylthiophene-2-carbaldehyde]	12 ± 0.037	33 ± 0.0035	48 ± 0.049	57 to 59	–	47 ± 0.15	–	61 ± 0.13	–	61 ± 0.14	3.947 ± 0.078	–	63 ± 0.18	–	63 ± 0.18	–	67.6 ± 0.001	92.5 (≈ 491 µM)	–
Triton X-100 [Triton-X 100, reference compound]	–	–	–	–	–	–	–	–	–	–	–	–	–	–	–	–	–	–	Haemolytic activity, percentage of lysis (Average ± SD) [2]: 99.824 ± 0.536%
